# Reference: US5124157A, “Method and device for administering dexmedetomidine transdermally” (Cygnus Therapeutic Systems, priority 1989, dated 1992)
# Entries after “also recorded” stand apart in the source; their conditions may differ.
# Legend:
# alpha-2 receptor = conditions: background, cited from earlier work; for activity/potency of the isomers (in words): isomers compared with each other
# [1] = skin permeability, base versus salts (general statement); assay type: in vitro ADME; conditions: free base vs its salts; no data given
# [2] = no data given; cited from earlier work
SMILES,alpha-2 receptor agonist potency and selectivity (in words) (alpha-2 receptor),activity/potency of the isomers (in words) (alpha-2 receptor),skin permeability of base form relative to salts (in words) [1],clearance rate from the body (in words) [2]
"Cc1cccc(C(C)c2cnc[nH]2)c1C (stereo not drawn) [Medetomidine, 4(5)-[alpha-methyl-2,3-dimethylbenzyl] imidazole]",potent and selective alpha-2 receptor agonist,,,
Cc1cccc([C@@H](C)c2cnc[nH]2)c1C [Preparation 1-isomer],,far less potent,,
Cc1cccc([C@H](C)c2cnc[nH]2)c1C [dexmedetomidine],,the active isomer,the skin is somewhat more permeable to the base form of the drug than its salts,quite high; also recorded: relatively high
